For this experiment, the target named is Carbonic anhydrase 2 (Homo sapiens, UniProt P00918). Put plainly: Inhibition of human carbonic anhydrase 2.

In general, IC50 refers to the concentration that gives 50% inhibition. A high value points to weaker potency.

As for `NS(=O)(=O)NCc1csc2ccccc12`, half-maximal inhibition (IC50) required 110 µM.

The values are drawn from ChEMBL document CHEMBL1136867, “2009 Edward E Smissman Award. Pharmaceutical "gold" from neurostabilizing agents: topiramate and successor molecules” (J Med Chem, 2009).
